One series has as its system S. aureus 209-P JC. Briefly: MIC by agar plate dilution method, S. aureus 209-P JC. The settings on record: Staphylococcus aureus, S. aureus 209-P JC, inoculum 10^6, 37° C., 18 hours, read-out: minimum inhibitory concentration (MIC). Type of series: cell-based. How it is done: (§1) Test method: The MIC was measured by an agar plate dilution method in accordance with a standard method of Japan Chemotherapeutic Society (cf. Nippon Kagaku Ryoho Gakkaishi, 29(1), 76-79, 1981). Thus, the organisms incubated at 37° C. for 18 hours using sensitivity test broth (Nissei) was diluted to 10^6 CFU/ml using the same broth. […] As a control, enoxacin and ofloxacin were used in Tests 1 and 2, respectively.
(§2) The numbers of the inoculated bacteria were 10^6 in all cases and the unit of the MIC was micrograms/ml.

The test system of the next series is M. luteus ATCC 9341. Briefly: MIC by agar plate dilution method, M. luteus ATCC 9341. The settings on record: Micrococcus luteus, ATCC9341, inoculum 10^6, 37° C., 18 hours, read-out: minimum inhibitory concentration (MIC). Type of series: cell-based. As to the method: as §1, §2
The subject of the next series is B. subtilis ATCC 6633. Briefly: MIC by agar plate dilution method, B. subtilis ATCC 6633. The settings on record: Bacillus subtilis, ATCC6633, B. subtilis ATCC 6633, inoculum 10^6, 37° C., 18 hours, read-out: minimum inhibitory concentration (MIC). The format is cell-based. As to the method: as §1, §2
The subject of another series is E. coli NIHJ JC-2. Briefly: MIC by agar plate dilution method, E. coli NIHJ JC-2. The settings on record: Escherichia coli, NIHJJC2, E. coli NIHJ JC-2, inoculum 10^6, 37° C., 18 hours, read-out: minimum inhibitory concentration (MIC). Type of series: cell-based. How it is done: as §1, §2
Another series has as its system K. pneumoniae K-1966. Briefly: MIC by agar plate dilution method, K. pneumoniae K-1966. The format is cell-based. The settings on record: Klebsiella pneumoniae, K1966, K. pneumoniae K-1966, inoculum 10^6, 37° C., 18 hours, read-out: minimum inhibitory concentration (MIC). How it is done:
as §1, §2

For a further series, the system named is S. marcescens IFO 3736. Briefly: MIC by agar plate dilution method, S. marcescens IFO 3736. The format is cell-based. The settings on record: Serratia marcescens, IFO3736, inoculum 10^6, 37° C., 18 hours, read-out: minimum inhibitory concentration (MIC). How it is done:
as §1, §2

Another series deals with S. flexneri. Briefly: MIC by agar plate dilution method, S. flexneri. The format is cell-based. To be noted: Shigella flexneri, 18 hours, read-out: minimum inhibitory concentration (MIC). How it is done: as §1, §2
Series [1] deals with P. aeruginosa E-2. Briefly: MIC by agar plate dilution method, P. aeruginosa E-2. Type of series: cell-based. To be noted: Pseudomonas aeruginosa, E2, P. aeruginosa E-2, inoculum 10^6, 37° C., 18 hours, read-out: minimum inhibitory concentration (MIC). How it is done: as §1, §2
A further series concerns S. epidermidis. Briefly: MIC by agar plate dilution method, S. epidermidis. Type of series: cell-based. To be noted: Staphylococcus epidermidis, Test 2, inoculum 10^6, 37° C., 18 hours, read-out: minimum inhibitory concentration (MIC). As to the method: as §1, §2
In another series the test system is Proteus mirabilis 181. Briefly: MIC by agar plate dilution method, Proteus mirabilis 181. The format is cell-based. To be noted: read-out: minimum inhibitory concentration (MIC). How it is done: as §1, §2
The subject of series [2] is E. coli KC-14. Briefly: Therapeutic effect on infection in mice, E. coli KC-14. To be noted: Escherichia coli, KC14, po, 168 h. Type of series: in vivo, ddY-strain male mice. As to the method: (§3) Test Method: Escherichia coli KC-14 and Psudomonas aeruginosa E-2 were suspended in 4% mucin and 0.25 ml of it was inoculated into peritoneal cavity of ddY-strain male mice (body weight about 20 g; 4 weeks age; 10 mice per group). The numbers of the inoculated bacteria were 5.1×10^4 CFU/mouse and 7.5×10^4 CFU/mouse for E. coli and P. aeruginosa, respectively. The drug was administered orally once 2 hours after the infection of the bacteria and, out of the survival rate after one week, the ED50 values were calculated by a Behrens-Karber method. As controls, ofloxacin and enoxacin were used.
(§4) Bacteria used for calculating ED50 were E. coli KC-14 for (1) and P. aeruginosa E-2 for (2). The compounds (1) to (7) of the present invention designated in Table 2 are as follows.

The subject of series [3] is P. aeruginosa E-2. Briefly: Therapeutic effect on infection in mice, P. aeruginosa E-2. The format is in vivo, ddY-strain male mice. The settings on record: Pseudomonas aeruginosa, E2, po, 168 h. How it is done: as §3, §4
The test system of series [4] is infections caused by Gram positive bacteria and Pseudomonas aeruginosa (chronic). The settings on record: background statement; cited from earlier work.
The next series has as its system S. aureus Smith. Briefly: MIC by agar plate dilution method, S. aureus Smith. The format is cell-based. To be noted: Staphylococcus aureus; Test 1; S. aureus Smith; inoculum 10^6; 37° C., 18 hours; read-out: minimum inhibitory concentration (MIC). As to the method: as §1, §2
Series [5] deals with E. coli KC-14. Briefly: MIC by agar plate dilution method, E. coli KC-14. The format is cell-based. The settings on record: Escherichia coli, KC14; Test 1; E. coli KC-14; inoculum 10^6; 37° C., 18 hours; read-out: minimum inhibitory concentration (MIC). How it is done: as §1, §2
For another series, the system named is E. cloacae No. 1. Briefly: MIC by agar plate dilution method, E. cloacae No. 1. To be noted: Enterobacter cloacae; Test 1; E. cloacae No. 1; inoculum 10^6; 37° C., 18 hours; read-out: minimum inhibitory concentration (MIC). The format is cell-based. How it is done: as §1, §2
The next series has as its system P. vulgaris HX-19. Briefly: MIC by agar plate dilution method, P. vulgaris HX-19. Type of series: cell-based. The settings on record: Proteus vulgaris, HX19, Test 1, inoculum 10^6, 37° C., 18 hours, read-out: minimum inhibitory concentration (MIC). As to the method:
as §1, §2

The next series deals with A. calcoaceticus 54. Briefly: MIC by agar plate dilution method, A. calcoaceticus 54. Type of series: cell-based. The settings on record: Acinetobacter calcoaceticus; Test 1; A. calcoaceticus 54; inoculum 10^6; 37° C., 18 hours; read-out: minimum inhibitory concentration (MIC). As to the method:
as §1, §2

The nature of another series: in vivo. The settings on record: mouse, oral administration, ddY-strain male mice, 2 weeks.
Setting [6] is: E. coli KC-14, 5.1×10^4 CFU/mouse i.p., drug orally once 2 hours after infection, survival after one week, read-out: ED50.
[7] abbreviates: P. aeruginosa E-2, 7.5×10^4 CFU/mouse i.p., drug orally once 2 hours after infection, survival after one week, read-out: ED50.

In brackets after ≈: the same amount, converted by molar mass. Like-named read-outs stand apart in the source and are kept apart here. Some results are limits rather than exact numbers.

Text for in vivo: The result of oral administration to ddY-strain male mice (7 weeks age; body weight ca. 35 g; 3 mice per group) for 2 weeks was given.

As usually defined, the ED50 is the dose at which the effect has come halfway, by size or by number of responders. Turning to `CC1COc2c(N3CCN(C)CC3)c(F)cc3c(=O)c(C(=O)O)cn1c23` (racemic) [Ofloxacin, ofloxacin, reference compound], the MIC came to 0.78 µg/mL (≈ 2.16 µM) in the series on S. aureus 209-P JC (Test 2); 3.13 µg/mL (≈ 8.66 µM) in the series on M. luteus ATCC 9341 (Test 2, M. luteus ATTC 9341); 0.2 µg/mL (≈ 0.553 µM) with B. subtilis ATCC 6633 (Test 2); 0.05 µg/mL (≈ 0.138 µM) with E. coli NIHJ JC-2 (Test 2); 0.1 µg/mL (≈ 0.277 µM) in the series on K. pneumoniae K-1966 (Test 2); 0.39 µg/mL (≈ 1.08 µM) with S. marcescens IFO 3736 (Test 2, S. Marcescens IFO 3736). The MIC in the series on S. flexneri (Test 2, inoculum 10^6, 37° C.) worked out at 0.1 µg/mL (≈ 0.277 µM); with P. aeruginosa E-2 [1] (Test 2) it was 1.56 µg/mL (≈ 4.32 µM); with S. epidermidis, 1.56 µg/mL (≈ 4.32 µM); in the series with Proteus mirabilis 181 (Test 2, Proteus mirabilis 181, inoculum 10^6, 37° C., 18 hours) it was 0.1 µg/mL (≈ 0.277 µM). The ED50 stood at 0.8 mg/kg in the series with E. coli KC-14 [2] (setting [6]) and 16 mg/kg in the series with P. aeruginosa E-2 [3] (setting [7]). The “activity against infections caused by Gram positive bacteria and Pseudomonas aeruginosa (chronic)” value in series [4] is reported as “not active”.
`CCn1cc(C(=O)O)c(=O)c2cc(F)c(N3CCNCC3)nc21` [Enoxacin, enoxacin, reference compound]: the MIC was 0.78 µg/mL (≈ 2.44 µM) with S. aureus 209-P JC (Test 1); 0.78 µg/mL (≈ 2.44 µM) in the series on S. aureus Smith; 25 µg/mL (≈ 78 µM) with M. luteus ATCC 9341 (Test 1, M. luteus ATCC 9341); 0.2 µg/mL (≈ 0.624 µM) in the series on B. subtilis ATCC 6633 (Test 1); 0.2 µg/mL (≈ 0.624 µM) in the series with E. coli NIHJ JC-2 (Test 1); 0.1 µg/mL (≈ 0.312 µM) with E. coli KC-14 [5]. Moreover, the MIC with K. pneumoniae K-1966 (Test 1) turned out to be 0.2 µg/mL (≈ 0.624 µM); in the series on E. cloacae No. 1, 0.1 µg/mL (≈ 0.312 µM); in the series with S. marcescens IFO 3736 (Test 1, S. marcescens IFO 3736), 0.39 µg/mL (≈ 1.22 µM); in the series on P. vulgaris HX-19, 0.05 µg/mL (≈ 0.156 µM); with S. flexneri (Test 1, inoculum 10^6, 37° C.), 0.1 µg/mL (≈ 0.312 µM); in the series with P. aeruginosa E-2 [1] (Test 1), 0.78 µg/mL (≈ 2.44 µM). In addition, the MIC in the series with A. calcoaceticus 54 was 1.56 µg/mL (≈ 4.87 µM). In addition, the 50% effective dose (ED50) with E. coli KC-14 [2] (setting [6]) is 1.8 mg/kg; in the series on P. aeruginosa E-2 [3] (setting [7]) it was 13.1 mg/kg. Besides, in series [4], the “activity against infections caused by Gram positive bacteria and Pseudomonas aeruginosa (chronic)” value was “not active”.
Usually LD50 stands for the dose expected to kill half of the subjects tested. A high value points to lower toxicity. Turning to `CC1Sc2c(C(=O)O)c(=O)c3cc(F)c(N4CCN(C)CC4)cc3n21` (stereo not shown) [Table 1 (2), 6-Fluoro-1-methyl-7-(4-methyl-1-piperazinyl)-4-oxo-4H-(1,3)thiazeto(3,2-a)quinoline-3-carboxylic acid], the LD50 at 336 h in the series “in vivo” is no less than 3000 mg/kg.
With `CC1Sc2c(C(=O)O)c(=O)c3cc(F)c(N4CCN(C)CC4)cc3n21.O=S(=O)(O)O` (stereo not shown) [Table 1 (5), 6-Fluoro-1-methyl-7-(4-methyl-1-piperazinyl)-4-oxo-4H-(1,3)thiazeto(3,2-a)quinoline-3-carboxylic acid sulfate], the ED50 was 0.5 mg/kg with E. coli KC-14 [2] and 4 mg/kg in the series on P. aeruginosa E-2 [3].
`COc1c(N2CCN(C)CC2)c(F)cc2c(=O)c(C(=O)O)c3n(c12)C(C)S3` (stereo not shown) [Table 1 (14), 6-Fluoro-8-methoxy-1-methyl-7-(4-methyl-1-piperazinyl)-4-oxo-4H-(1,3)thiazeto(3,2-a)quinoline-3-carboxylic acid]: the MIC in the series on S. aureus 209-P JC (Test 2) worked out at 0.1 µg/mL (≈ 0.254 µM); with M. luteus ATCC 9341 (Test 2, M. luteus ATTC 9341), 0.2 µg/mL (≈ 0.508 µM); in the series with B. subtilis ATCC 6633 (Test 2) it was 0.025 µg/mL (≈ 0.0635 µM); with E. coli NIHJ JC-2 (Test 2), 0.05 µg/mL (≈ 0.127 µM); in the series with K. pneumoniae K-1966 (Test 2) it was 0.025 µg/mL (≈ 0.0635 µM); with S. marcescens IFO 3736 (Test 2, S. Marcescens IFO 3736), 0.2 µg/mL (≈ 0.508 µM). Further, the MIC with S. flexneri (Test 2, inoculum 10^6, 37° C.) came out at 0.0125 µg/mL (≈ 0.0318 µM); in the series on P. aeruginosa E-2 [1] (Test 2) it was 0.39 µg/mL (≈ 0.991 µM); in the series with S. epidermidis it was 0.39 µg/mL (≈ 0.991 µM); in the series with Proteus mirabilis 181 (Proteus mirabilis, 181, 18 h) it was 0.0125 µg/mL (≈ 0.0318 µM).
For the molecule `CCOC(=O)c1c2n(c3cc(N4CCN(C)C(C)C4)c(F)cc3c1=O)C(C)S2` (stereo not shown) [Table 2 (3), Ethyl 7-(3,4-dimethyl-1-piperazinyl)-6-fluoro-1-methyl-4-oxo-4H-(1,3)thiazeto(3,2-a)quinoline-3-carboxylate], in “in vivo”, the median lethal dose (LD50) at 336 h was no less than 3000 mg/kg.
As for `CCOC(=O)c1c2n(c3cc(N4CCN(CC(C)=O)CC4)c(F)cc3c1=O)C(C)S2` (stereo not shown) [Table 2 (5), Ethyl 7-(4-acetonyl-1-piperazinyl)-6-fluoro-1-methyl-4-oxo-4H-(1,3)thiazeto(3,2-a)quinoline-3-carboxylate], the median lethal dose (LD50) at 336 h in “in vivo” is no less than 3000 mg/kg.
Consider `CC(=O)CN1CCN(c2cc3c(cc2F)c(=O)c(C(=O)O)c2n3C(C)S2)CC1` (stereo not shown) [Table 2 (6), 7-(4-Acetonyl-1-piperazinyl)-6-fluoro-1-methyl-4-oxo-4H-(1,3)thiazeto(3,2-a)quinoline-3-carboxylic acid], for which the results for the median effective dose (ED50) in the series on E. coli KC-14 [2] (setting [6]) and in the series on P. aeruginosa E-2 [3] (setting [7]) were 0.6 mg/kg and 5 mg/kg, respectively.

The record behind these values is patent US4843070A, “Substituted thiazetoquinoline-3-carboxylic acids and pharmaceutically acceptable salts thereof” (priority 1986, dated 1989).
